Patent US11021511B2, “Cyclic dinucleotides as sting agonists” (Janssen Biotech, Inc., priority 2017, dated 2021)

What was measured:
THP1-Blue ISG cells = test: Human interferon-β induction assay; assay type: cell-based; settings: total cumulative IFN-β induction over the dose range tested (0.78 to 50 μM) in THP-1 Blue cells
Description: THP1-Blue ISG cells are used to measure the secretion of IFN-β into the culture supernatant following STING pathway activation. To run the assay, anti-IFN-β capture antibodies were coated on 96 well MultiArray plates (Mesoscale Discovery). After a one hour incubation, plates were washed and 50 μL supernatant from the STING human cell reporter assay plates or IFN-β standards were mixed with 20 μL Sulfotag-conjugated detection antibody in the coated plates. Plates were incubated, shaking for 2 h, washed, and read buffer was applied. Electrochemiluminescence was measured on the SectorImager.

primary human PBMC = test: PBMC activation, CD54 upregulation on monocytes by flow cytometry; assay type: cell-based; settings: 20 μM, 48 h, relative to resting cells
Description: Concurrently, PBMC were isolated as described previously. To stimulate the PBMC, 10,000,000 cells were dispensed into 400 μL/well of flat-bottom, tissue culture treated, 24-well plates. Test compounds were added in a volume of 100 μL, then the cultures were incubated for 48 h at 37° C., 5% CO2. Supernatants were harvested. Cells were measured for activation marker upregulation using flow cytometery. Briefly, cells were stained with fluorescently labeled antibodies directed to CD56, CD19, CD3, CD8a, CD14, CD69, CD54, CD161, CD4 and CD80. Samples were analyzed on an Attune N×T flow cytometer (Thermo Fisher, Carlsbad, Calif.)
PBMCs were stimulated with 20 μM of CDN for 48 h. Cells were assessed by flow cytometry for upregulation of CD54 on monocytes. The fold increase in Mean Fluoresence Intensity was calculated relative to the levels on resting cells. The data is an average of two independent donors.

human STING = human STING (Homo sapiens (Human), UniProt Q86WV6, H232R); test: human STING SPA binding assay
human STING, sequence (Q86WV6 139-379 H232R): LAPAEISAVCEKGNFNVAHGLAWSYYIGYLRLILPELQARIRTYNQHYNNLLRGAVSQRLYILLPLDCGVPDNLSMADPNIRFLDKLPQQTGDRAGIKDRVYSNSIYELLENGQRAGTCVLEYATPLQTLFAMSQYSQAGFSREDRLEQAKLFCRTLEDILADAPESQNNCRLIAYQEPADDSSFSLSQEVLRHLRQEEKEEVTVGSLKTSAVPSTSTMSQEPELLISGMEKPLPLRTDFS
Description: The HIS tag is cleaved after purification and prior to biotinylation.
Test compounds (80 nL) were added with an acoustic dispenser (EDC Biosystems) in 100% DMSO for a final assay concentration of 1% DMSO. Plates were centrifuged for 1 min and incubated for 60 min at room temperature. Finally, (2 μL) polystyrene streptavidin SPA beads (PerkinElmer RPNQ0306) were added and plates were sealed and centrifuged for 1 min at room temperature. Plates were dark adapted for 2 h and read on a ViewLux (Perkin Elmer) for 12 min per plate.

[1] = system: human STING pathway in THP1-ISG cells; test: STING human cell reporter assay; assay type: cell-based; settings: SEAP reporter, 24 h
Description: Agonism of the human STING pathway is assessed in THP1-ISG cells (Invivogen, cat #thp-isg) derived from human THP1 monocyte cell line by stable integration of an interferon regulatory factor (IRF)-inducible SEAP reporter construct. THP1-Blue ISG cells express a secreted embryonic alkaline phosphatase (SEAP) reporter gene under the control of an ISG54 minimal promoter in conjunction with five interferon (IFN)-stimulated response elements. As a result, THP1-Blue ISG cells allow the monitoring of IRF activation by determining the activity of SEAP. The levels of IRF-induced SEAP in the cell culture supernatant are readily assessed with alkaline phosphatase detection medium, a SEAP detection reagent. These cells are resistant to Zeocin. […] To run the assay, 60,000 cells were dispensed in 30 μL/well of a white, opaque bottom tissue culture treated 384-well plate.
Test compounds were added in a volume of 10 μL (1% DMSO final concentration). Compounds are initially prepared in 100% DMSO, spotted on an intermediate dilution plate and then diluted in media prior to transfer. The assay was incubated for 24 h at 37° C., 5% CO2 then plates were centrifuged at 1200 rpm (120×g) for 5 min. […]

Structure (SMILES)	human IFN-β (ranking value) (THP1-Blue ISG cells)	other results
COC1C2COP(=O)(S)OC3C(COP(=O)(S)OC1C(n1cnc4c(=O)[nH]c(N)nc41)O2)OC(n1cnc2c(N)ncnc21)C3F (single isomer, unassigned) [Compound 6a]	2427	–
COC1C2COP(=O)(S)OC3C(COP(=O)(S)OC1C(n1cnc4c(=O)[nH]c(N)nc41)O2)OC(n1cnc2c(N)ncnc21)C3F (single isomer, unassigned) [Compound 6b]	904	–
COC1C2COP(=O)(S)OC3C(COP(=O)(S)OC1C(n1cnc4c(=O)[nH]c(N)nc41)O2)OC(n1cnc2c(N)ncnc21)C3F (single isomer, unassigned) [Compound 6c]	4266	–
COC1C2COP(=O)(S)OC3C(COP(=O)(S)OC1C(n1cnc4c(=O)[nH]c(N)nc41)O2)OC(n1cnc2c(N)ncnc21)C3F (single isomer, unassigned) [Compound 6d]	3039	–
Nc1nc2c(ncn2[C@@H]2O[C@@H]3COP(=O)(O)O[C@H]4[C@@H](O)[C@H](n5cnc6c(N)ncnc65)O[C@@H]4COP(=O)(O)O[C@@H]2[C@@H]3O)c(=O)[nH]1 [4-2′3′-cGAMP, (2′,3′)cyclic guanosine monophosphate-adenosine monophosphate]	–	MFI, fold increase of CD54 on monocytes (primary human PBMC): 4.5
CC1(O)C2OP(=O)(O)OCC3OC(n4cnc5c(=O)[nH]c(N)nc54)C(OP(=O)(O)OCC2OC1n1cnc2c(N)ncnc21)C3O (centres unmarked) [Compound 1]	–	IC50 (human STING): 54.5 µM; EC50 [1]: 1.81 µM
COC1C2COP(=O)(O)OC3C(COP(=O)(O)OC1C(n1cnc4c(=O)[nH]c(N)nc41)O2)OC(n1cnc2c(N)ncnc21)C3F (centres unmarked) [Compound 5]	1024	–
